Assay results taken from paper PMC5594493, “Antiproliferative factor (APF) binds specifically to sites within the cytoskeleton-associated protein 4 (CKAP4) extracellular domain” (BMC Biochemistry, 2017).

Columns and labels:
CKAP4 = assay: SPR binding to CKAP4 recombinant proteins (overall statements); conditions: comparison of as-APF, APF and control peptide
Protocol: (§1) All SPR experiments were performed on a Biacore X-100 instrument (GE Healthcare) with the chip surface at 25 °C using PBS containing 0.01% Tween-20 as running buffer. CKAP4 recombinant proteins were immobilized individually either by Ni^2+/nitrilotriacetic acid (NTA) chelation on Sensor Chip NTA or by amine-coupling on Sensor Chip CM5, on the Fc2 channel. For amine-coupling, the sensor surface on both flow cells was activated for 7 min with a 1:1 mixture of 0.1 M EDC (1-ethyl-3-(3-dimethylaminopropyl) carbodiimide hydrochloride) and 0.1 M NHS (N-hydroxysuccinimide) at a flow rate of 5 μl/min. Immobilization of CKAP4 proteins (on Fc2) was performed in 10 mM sodium acetate buffer, at either pH 4.5, 5.0, or 5.5 based on preliminary pH scouting runs, for optimal binding. Unreacted NHS groups were quenched with a 7 min injection of 1 M ethanolamine pH 8.5. The Fc1 channel was treated similarly but without CKAP4 and served as a reference. Upon stabilization of the baseline signal, multi-cycle kinetics assays were performed with injections of as-APF as analyte at various concentrations (2.5–40 μM) in running buffer at 30 μl/min for 2 min, immediately followed by a 3 min dissociation phase. […] The data were analyzed using Biacore Evaluation software V2.0. […]

CKAP4_127–360 = biological target: T1, CKAP4_127–360 (Homo sapiens, UniProt Q07065); assay: SPR detection of as-APF in spiked urine, CKAP4_127–360 biosensor; format: binding; conditions: immobilized CKAP4_127–360
T1 construct: amino acids 106–602, 127–360, 361–524, and 525–602 regions were generated by PCR and subcloned into the pET-15b bacterial expression vector; His-tag; made in house; host or cells: E. coli BL21(DE3)pLysS
T1 sequence (Q07065 127-360): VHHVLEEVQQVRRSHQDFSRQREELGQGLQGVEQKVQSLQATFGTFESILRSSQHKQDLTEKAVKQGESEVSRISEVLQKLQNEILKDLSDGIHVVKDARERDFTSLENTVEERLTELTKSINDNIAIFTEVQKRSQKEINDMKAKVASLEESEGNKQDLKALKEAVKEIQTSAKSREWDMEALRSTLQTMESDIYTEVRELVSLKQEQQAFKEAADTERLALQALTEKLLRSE
Protocol: For experiments using spiked urine, CKAP4_127–360 was immobilized on the Fc2 channel of a CM5 chip by amine-coupling, as the ligand. The Fc1 channel was similarly treated but without CKAP4, to serve as reference. A control urine sample from a healthy donor was mixed 1:1 with as-APF stock (200 μM) solution. Various dilutions of this mixture in SPR running buffer were prepared to yield desired as-APF final concentrations, and then injected over the sensor chip surface. Corresponding dilutions of unspiked control urine were run under identical conditions to account for background interference from urinary constituents. To ensure identical running conditions, all dilutions were adjusted to 1X SPR running buffer from a 10X stock. Sensorgrams were corrected for background interference from urinary constituents by subtracting the RU traces resulting from unspiked urine injections from the RU traces resulting from the corresponding urine dilutions with spiked as-APF, and subsequently replotted after subtracting the RU trace from the reference (Fc1) channel.
In order to determine whether this SPR-based assay employing CKAP4 as a biosensor could be used to detect APF in urine, we used urine from healthy donors spiked with as-APF as a mimetic for IC patient urine. CKAP4_127–360 was employed as the biosensing ligand, since it bound as-APF with the highest affinity. […]

CKAP4_127–602 = biological target: T2, CKAP4_127–602 (Homo sapiens, UniProt Q07065); assay: SPR, CKAP4_127–602 as immobilized ligand; format: binding; conditions: CKAP4_127–602 immobilized on NTA chip
T2 construct: encompassing only the extracellular domain (Aa 127–602) tagged at the C-terminus with a His-tag (CKAP4_127–602); His-tag (C); made in house; host or cells: E. coli BL21(DE3)pLysS
T2 sequence (Q07065 127-602): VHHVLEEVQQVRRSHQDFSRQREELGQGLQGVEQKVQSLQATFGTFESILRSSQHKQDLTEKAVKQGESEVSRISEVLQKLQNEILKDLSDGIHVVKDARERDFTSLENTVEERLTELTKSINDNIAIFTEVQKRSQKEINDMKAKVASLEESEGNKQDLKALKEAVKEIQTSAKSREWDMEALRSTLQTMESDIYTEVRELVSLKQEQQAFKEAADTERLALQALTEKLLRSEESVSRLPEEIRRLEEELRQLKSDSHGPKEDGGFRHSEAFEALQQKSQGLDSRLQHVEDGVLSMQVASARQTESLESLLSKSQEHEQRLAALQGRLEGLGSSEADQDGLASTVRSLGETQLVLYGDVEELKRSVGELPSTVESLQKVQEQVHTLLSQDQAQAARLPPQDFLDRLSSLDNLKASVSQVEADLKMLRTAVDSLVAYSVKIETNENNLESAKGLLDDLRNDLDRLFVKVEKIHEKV
Protocol: as §1

detection in normal urine (CKAP4_127–360): in a dose-dependent manner
binding (CKAP4_127–602): did not bind robustly
Substance: Neu5Acα2 − 3Galβ1 − 3GalNAcα-O-TVPAAVVVA [APF]
binding to CKAP4 (in words) (CKAP4): bound to CKAP4 with high specificity compared to control APF peptide
